The results in this text go back to US6440980B1, “Synergistic inhibition of viral replication by long-chain hydrocarbons and nucleoside analogs” (Avanir Pharmaceuticals, priority 1996, dated 2002).

Where two headings read alike, the source gives them in different places. Where only a bound is given, the exact number is not on record here.

The subject of data set [1] is HSV-1. Kind of data set: HSV-1 PFU production in Vero cell cultures. It counts as cell-based, HSV-1 (MacIntyre strain).
For data set [2], the system named is vaccinia virus. The experiment in a line: microbe, parasite or virus in culture. Format: cell-based, vaccinia virus (WR strain). The conditions noted are these: for EC50: read-out: EC50 for inhibition of vaccinia virus replication.
For data set [3], the system named is human foreskin fibroblasts. The experiment in a line: Cell proliferation (cytostasis), sulforhodamine staining. Format: cell-based. As to conditions: 1,000 cells/well, 96-hours incubation. How it is done:
The effects of n-docosanol and n-docosane suspensions on cell proliferation (cytostasis) were quantitated using the sulforhodamine staining assay on cultures of human foreskin fibroblasts incubated in 96-well plates.
Foreskin fibroblasts were plated with or without aliphatic alcohol suspensions or control surfactant suspensions at 1,000 cells/well (FIG. 6A and FIG. 7) or at 30,000 cells/well (FIG. 6B) in 96 well plates. After incubation for 72 hr or 96 hr at 37° C., cells were precipitated with trichloroacetic acid, stained with sulforhodamine and quantitated by measuring the OD540 in a microtiter plate reader.

The subject of data set [4] is HSV-2. Kind of data set: Inhibition of HSV-2 plaque formation in Vero cells. The conditions noted are these: for Percent Inhibition of Plaque Formation: PLURONIC F-68 suspension added 12 hr before HSV-2 (erucyl alcohol with the virus), Toxic = monolayer destroyed within 24 hr; for inhibition of viral plaque production at concentrations that were not cytotoxic: 0.2 μM stearyl alcohol, 2 μM arachidyl alcohol; for 50% Inhibition Concentration (mM): alcohol suspension in PLURONIC F-68, Vero cells incubated 12 hr before HSV-2, linear regression, Toxic = monolayer destroyed by end of 12-hour incubation with at least 1.5 mM.

In data set [5] the test system is Vero cells. Kind of data set: Cytotoxicity to Vero cells (monolayer integrity, trypan blue exclusion). As to conditions: surfactant suspension.
Data set [6] concerns B cell hybridoma (MBI-9). The experiment in a line: 3H-thymidine incorporation into DNA of B cell hybridoma. Format: cell-based, murine. The conditions noted are these: Mus musculus, read-out: IC50 (3H-thymidine incorporation).
Data set [7] relates to all cell lines tested. The experiment in a line: Cytotoxicity in mammalian cell cultures. As to conditions: for IC50: read-out: IC50 (cellular toxicity by chain length). The text has this:
Three assays were used to quantitate the effects of aliphatic alcohols on cell survival and proliferation: 1) counting cells with a hemocytometer and determining the number of cells that exclude trypan blue; 2) measuring the incorporation of ^3H-thymidine into cellular DNA by adding ^3H-thymidine (from New England Nuclear) to the culture medium, lysing the cells with water and harvesting the DNA onto filter paper; and 3) measuring total cellular protein using a sulforhodamine assay adapted for use in 96-well microtiter plates (Skehan et al., J. Natl. Cancer Inst. […] All of these methods are well known cell viability and cytotoxicity assays.

Data set [8] concerns influenza virus. It counts as in vivo, human. The conditions noted are these: for highest recorded body temperature (mean): erucyl alcohol 0.15 mM five times per day, erucamide 1.5 mM three times per day, untreated 38.9; for mean duration of flu symptoms: untreated 3 days.
The subject of data set [9] is Vero cells. As to conditions: African green monkey.
Where [10] appears, read: 15 mM n-docosanol, 500 PFU/culture, three days, read-out: EC90 for inhibition of HSV-1 PFU production in the presence of n-docosanol.
Setting [11] is: Human alphaherpesvirus 1, Vero, 72 h, read-out: EC90 for inhibition of HSV-1 PFU production, drug used alone.
Setting [12] is: Orthopoxvirus vaccinia, Vero, 72 h.
[13] abbreviates: Human alphaherpesvirus 2, Vero, read-out: Percent Inhibition of Plaque Formation.
The mark [14] stands for this setting: Human alphaherpesvirus 2, Vero, read-out: 50% Inhibition Concentration (mM).

Take `Nc1ncnc2c1ncn2[C@@H]1O[C@H](CO)[C@@H](O)[C@@H]1O` [Ara-A, Adenine 9-β-D-arabinofuranoside]: the “reduction of EC90 by n-docosanol” value in data set [1] (15 mM n-docosanol) worked out at 16 fold. For the same molecule, the concentration for an effect of 90% (EC90) was roughly 1.4 µM in data set [1] (setting [10]) and roughly 22 µM in data set [1] (control cultures without n-docosanol, 500 PFU/culture, three days, read-out: EC90 for inhibition of HSV-1 PFU production, drug used alone). Also, in [2] (control cultures (medium or PLURONIC F-68), 3 days post-infection), the EC50 is roughly 20 µM.
With `O=c1[nH]c(=O)n([C@H]2C[C@H](O)[C@@H](CO)O2)cc1C(F)(F)F` [Trifluridine, trifluridine deoxyriboside], the “reduction of EC90 by n-docosanol” value in [1] (15 mM n-docosanol) was found to be 5 fold. Also, the EC90 in [1] (setting [11]) was roughly 6.8 µM; in [1] (read-out: EC90 for inhibition of HSV-1 PFU production in the presence of n-docosanol, 15 mM n-docosanol, 500 PFU/culture, three days), roughly 1.35 µM. Besides, in [2] (setting [12]), the EC50 is roughly 2 µM.
Consider `CCCCCCCCCCCCCCCCCCCCCC` [n-docosane], for which the “antiproliferation effects compared to the surfactant control” value in data set [3] is recorded as “minimal antiproliferation effects”. In data set [4] (setting [13]), the inhibition at 1000 µM was determined as 28%, the inhibition at 2000 µM amounted to 31%, the inhibition at 4000 µM is 42% and the inhibition at 8000 µM is 55%. In addition, the inhibition at 15000 µM in data set [4] (setting [13]) turned out to be 58%.
With `CCCCCCCCCCCCCCCCCCCCCC(=O)O` [n-docosanoic acid], the “Percent Inhibition of Plaque Formation” value was “Toxic” in data set [4] (4 mM), “Toxic” in data set [4] (8 mM) and “Toxic^†” in data set [4] (15 mM). In data set [4] (setting [13]), the inhibition at 500 µM is 26%. Moreover, the inhibition at 1000 µM in [4] (setting [13]) was 16%. Moreover, the inhibition at 2000 µM in data set [4] (setting [13]) came to 30%. In data set [5], the “concentrations tolerable to the cells” value was no more than 2000 µM.
Take `CCCCCCCCCCCCCCCCCCO` [stearyl alcohol]: in [6], the IC50 is less than 35 µM. The IC50 in [7] is less than 35 µM. Further, in data set [4], the “inhibition of viral plaque production at concentrations that were not cytotoxic” value is given as “no inhibition of viral plaque production” and the “50% Inhibition Concentration (mM)” value is recorded as “Toxic**”.
`O=C(O)P(=O)(O)O` [PFA, phosphonoformic acid]: the EC90 in data set [1] (setting [10]) is 17 µM; in data set [1] (Human alphaherpesvirus 1, Vero, 72 h, control cultures without n-docosanol, 500 PFU/culture, three days, read-out: EC90 for inhibition of HSV-1 PFU production, drug used alone), roughly 18 µM. The “interaction of n-docosanol with the antiviral activity of PFA against vaccinia virus” value in data set [2] (presence or absence of n-docosanol or PLURONIC F-68) was “no drug-drug interaction”.
For the molecule `CCCCCCCC/C=C\CCCCCCCCCCCC(N)=O` [erucamide, cis-13-docosenoamide], in data set [8], the “highest recorded body temperature (mean)” value is “about 37 °C” and the “mean duration of flu symptoms” value was “two”. Further, the “concentrations toxic to Vero cells (cells rounded and detached)” value in [9] is no less than 3000 µM. Moreover, in [4] (setting [13]), the inhibition at 30 µM is 34%, the inhibition at 590 µM stood at 42%, the inhibition at 890 µM was 44% and the inhibition at 1200 µM was 58%. In data set [4] (setting [13]), the inhibition at 1500 µM was determined as 68% and the inhibition at 1700 µM turned out to be 78%. Further, in data set [5], the “concentrations tolerable to the cells” value was no more than 1700 µM.
As to `CCCCCCCCCCCCCCCCCCCCCCCCCCCCO` [n-octacosanol], the “cytotoxicity of the suspensions (in words)” value (from here on “cytotoxicity”) in data set [7] is “same minimal level of cytotoxicity”. Besides, the EC50 in data set [4] (setting [14]) amounted to 10.5 mM.
Consider `CCCCCCCCCCCCCCCCCCCCO` [arachidyl alcohol], for which the IC50 in data set [6] (48 hr incubation) was roughly 1700 µM. Besides, in [7], the IC50 stood at 1500 µM. Further, the “cytotoxicity” value in [7] (surfactant suspensions) is on record as “extremely cytotoxic”. Further, the “concentration that was not cytotoxic” value in [9] came to 2 µM. In data set [4], the “inhibition of viral plaque production at concentrations that were not cytotoxic” value is listed as “no inhibition of viral plaque production” and the “50% Inhibition Concentration (mM)” value is “Toxic**”.
As to `NC(=O)c1ncn([C@@H]2O[C@H](CO)[C@@H](O)[C@H]2O)n1` [ribavirin], in [1] (15 mM n-docosanol), the “reduction of EC90 by n-docosanol” value was determined as 75 fold. Moreover, the concentration for an effect of 90% (EC90) was roughly 0.33 µM in data set [1] (setting [10]) and roughly 24.6 µM in data set [1] (setting [11]). In data set [2] (setting [12]), the EC50 is roughly 25 µM.
As for `CCCCCCCCCCCCCCCCCCCCCO` [heneicosanol], in data set [7], the IC50 is greater than 15000 µM. The “cytotoxicity” value in data set [7] (surfactant suspensions) was “same minimal level of cytotoxicity”. Further, in data set [4] (setting [14]), the EC50 worked out at 16 mM.
As for `CCCCCCCCCCCCCCCCCCCCCCCCO` [lignoceryl alcohol, n-tetracosanol], in [7] (surfactant suspensions), the “cytotoxicity” value was “same minimal level of cytotoxicity”. In addition, the EC50 in [4] (setting [14]) came out at 14.1 mM.
Take `CCCCCCCC/C=C\CCCCCCCCCCCCO` [erucyl alcohol, cis-13-docosen-1-ol]: in data set [8], the “highest recorded body temperature (mean)” value came to 37.8 °C and the “mean duration of flu symptoms” value was determined as 1.7 days. For the same molecule, in data set [8] (in vivo), the “frequency of fever per flu episode” value is recorded as “one to three”. Also, in [9], the “concentrations tolerable to the cells” value was no more than 1000 µM; the “concentrations toxic to Vero cells (cells rounded and detached)” value is 2000 to 15000 µM. For the same molecule, the “EC50 lower than the concentration required for n-docosanol” value in data set [4] (0.15 mM vs 9 mM) was 60 fold. The “Percent Inhibition of Plaque Formation” value in data set [4] (2 mM) is recorded as “Toxic”. Further, in data set [4] (4 mM), the “Percent Inhibition of Plaque Formation” value was “Toxic”. The “Percent Inhibition of Plaque Formation” value in data set [4] (8 mM) is “Toxic”. Further, the “Percent Inhibition of Plaque Formation” value in data set [4] (15 mM) was “Toxic”. In addition, the direct virucidal effect entry in data set [4] (HSV-2 incubated with the suspension for 2 hours, subsequent plaque formation on Vero cells) is on record as “did not inactivate the virus”. For the same molecule, in data set [4] (setting [13]), the inhibition at 250 µM amounted to 70%, the inhibition at 500 µM came to 91% and the inhibition at 1000 µM came to 93%. Further, in data set [4] (Human alphaherpesvirus 2, Vero, read-out: effective concentration required to inhibit plaque formation by 50% (EC50), surfactant suspension, Example 5), the EC50 was determined as 0.15 mM.
